Structures can show the parent of a compound that is named as a salt.
Biological target: Glycogen synthase kinase-3 beta (Homo sapiens, UniProt P49841)
Assay: concentration-response blocking of human GSK3B – biochemical, luminescence, cell-free homogeneous, retest, dose response (AID 434954)

Glycogen synthase kinase-3 beta, sequence (P49841 whole entry): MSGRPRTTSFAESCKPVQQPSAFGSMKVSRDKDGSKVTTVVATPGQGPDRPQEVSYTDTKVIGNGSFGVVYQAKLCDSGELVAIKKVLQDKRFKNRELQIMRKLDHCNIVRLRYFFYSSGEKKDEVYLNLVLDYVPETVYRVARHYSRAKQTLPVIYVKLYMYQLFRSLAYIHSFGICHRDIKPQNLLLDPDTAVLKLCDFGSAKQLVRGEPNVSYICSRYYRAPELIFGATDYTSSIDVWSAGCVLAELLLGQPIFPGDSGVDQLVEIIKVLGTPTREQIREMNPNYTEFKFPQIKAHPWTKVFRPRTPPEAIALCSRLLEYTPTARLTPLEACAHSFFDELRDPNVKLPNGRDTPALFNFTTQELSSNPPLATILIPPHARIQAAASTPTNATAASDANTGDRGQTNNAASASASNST

Compound	EC50 [µM]
COc1ccccc1-c1coc2c(CN(C)C)c(O)ccc2c1=O [8-[(dimethylamino)methyl]-7-hydroxy-3-(2-methoxyphenyl)chromen-4-one]	> 300
O=C(Nc1nnc(-c2cc(Cl)ccc2Cl)o1)c1ccco1	> 300
Nc1nc(NCc2ccco2)nc(NCCO)c1[N+](=O)[O-]	> 300
CCOC(=O)c1nnn(-c2nc(OC)nc(N3CCCC3)n2)c1-c1ccccc1	> 300
Cc1csc(SCC(=O)Nc2ccc(Cl)cn2)n1 [N-(5-chloropyridin-2-yl)-2-[(4-methyl-1,3-thiazol-2-yl)sulfanyl]acetamide]	19.4
CC(=O)N1CCc2c(sc(NC(=O)C3COc4ccccc4O3)c2C(N)=O)C1 (configuration not stated) [2-(2,3-dihydro-1,4-benzodioxin-3-ylcarbonylamino)-6-ethanoyl-5,7-dihydro-4H-thieno[2,3-c]pyridine-3-carboxamide]	8.32
CCC(=NNC(=O)CSCc1ccccc1Cl)c1ccc2c(c1)OCCO2	> 300
CCOc1ccc(Nc2nc(N)c([N+](=O)[O-])c(NCc3ccccc3)n2)cc1 [N'-Benzyl-N-(4-ethoxy-phenyl)-5-nitro-pyrimidine-2,4,6-triamine]	> 300
Cc1c(O)ccc2c(-c3ccccc3)cc(=O)oc12 [7-hydroxy-8-methyl-4-phenyl-1-benzopyran-2-one]	> 300
Cc1ccc(-c2nn(-c3ccccc3)cc2CO)cc1	> 300
Cn1c(=O)[nH]c(=O)c2c1nc1n2CCCS1	> 300
COCCN1C(=O)N[C@@H](c2cccc(C(F)(F)F)c2)[C@H](C(C)=O)[C@H]1C [(4R,5S,6R)-5-acetyl-1-(2-methoxyethyl)-6-methyl-4-[3-(trifluoromethyl)phenyl]-1,3-diazinan-2-one]	> 300
O=C(NCC(c1ccco1)N1CCN(c2ccc(F)cc2)CC1)c1ccc2c(c1)OCO2 (configuration not stated) [N-[2-[4-(4-fluorophenyl)-1-piperazinyl]-2-(2-furanyl)ethyl]-1,3-benzodioxole-5-carboxamide]	> 300
CC1Cc2cc(-c3csc(NC(=O)Cc4ccccc4)n3)ccc2N1S(C)(=O)=O (configuration not stated) [N-[4-(1-Methanesulfonyl-2-methyl-2,3-dihydro-1H-indol-5-yl)-thiazol-2-yl]-2-phenyl-acetamide]	> 300
CCn1c(=O)cc(OCC(=O)N(C)c2ccccc2F)c2ccccc21 [2-(1-ethyl-2-oxidanylidene-quinolin-4-yl)oxy-N-(2-fluorophenyl)-N-methyl-ethanamide]	> 300
Cc1ccc(C(=O)c2coc3ccc(OCC(=O)O)cc23)cc1 [2-[[3-[(4-methylphenyl)-oxomethyl]-5-benzofuranyl]oxy]acetic acid]	3.66

Compound	EC50 [µM]
O=C(O)c1ccccc1NC(=O)c1ccccc1Nc1ccccc1 [2-[(2-phenylazanylphenyl)carbonylamino]benzoic acid]	> 300
CCSc1nnc(NC(=O)CSc2nnc(CNC(=O)c3cc(OC)c(OC)c(OC)c3)o2)s1 [N-[[5-[2-[(5-ethylsulfanyl-1,3,4-thiadiazol-2-yl)amino]-2-oxoethyl]sulfanyl-1,3,4-oxadiazol-2-yl]methyl]-3,4,5-trimethoxybenzamide]	> 300
CC1(C)CC(=O)C2C(=Nc3ccccc3NC2c2cccs2)C1 (configuration not stated) [9,9-dimethyl-6-thiophen-2-yl-6,8,10,11-tetrahydro-5H-benzo[b][1,4]benzodiazepin-7-one]	> 300
CCc1n[nH]c(SCC(=O)Nc2ccc(Br)cn2)n1 [N-(5-bromanylpyridin-2-yl)-2-[(5-ethyl-1H-1,2,4-triazol-3-yl)sulfanyl]ethanamide]	17.5
O=C(c1cccs1)c1coc2ccc(O)c(CN(CCO)CCO)c12 [[4-[[bis(2-hydroxyethyl)amino]methyl]-5-oxidanyl-1-benzofuran-3-yl]-thiophen-2-yl-methanone;hydrochloride]	> 300
Cc1ccc(Nc2nc(N)c([N+](=O)[O-])c(NCc3ccco3)n2)cc1	9.2
COc1cccc2c1cc1c(=O)n(CC(=O)N3CCCCCC3)nc(C)n12 [2-[2-(azepan-1-yl)-2-oxidanylidene-ethyl]-9-methoxy-4-methyl-[1,2,4]triazino[4,5-a]indol-1-one]	> 300
O=NCc1ccc(SCc2ccccc2Cl)c([N+](=O)[O-])c1	> 300
CCN(CC)Cc1c(C(=O)N/N=C/c2ccncc2)nnn1-c1nonc1N	0.177
CC(C)C1Cc2c(sc3c2c(=O)n(-c2ccccc2)c2n[nH]c(=S)n32)CO1 (configuration not stated) [7-Isopropyl-1-mercapto-4-phenyl-6,9-dihydro-4H,7H-8-oxa-10-thia-2,3,4,10b-tetraaza-cyclopenta[a]fluo ren-5-one]	> 300
CCCc1cc(=O)[nH]c2nnc(SCC(=O)Nc3nccs3)n12 [2-[(7-oxidanylidene-5-propyl-1H-[1,2,4]triazolo[4,3-a]pyrimidin-3-yl)sulfanyl]-N-(1,3-thiazol-2-yl)ethanamide]	> 300
CSc1ncc(C(=O)Nc2ccccc2C)c(C)n1	> 300
CC1CCCCN1c1ncnc2ccccc12 (configuration not stated) [4-(2-Methyl-piperidin-1-yl)-quinazoline]	> 300
COCCCNc1nc(N)c([N+](=O)[O-])c(NCc2ccccc2)n1	5.95
COc1cc(C2c3c(n(Cc4ccccc4)c(=O)[nH]c3=O)N=C3CC(C)(C)CC(=O)C32)ccc1O (configuration not stated)	> 300

The remaining lines, values ahead:

EC50 [µM]	Compound
> 300	CCOc1ccc2c(c1)-c1c(ssc1=S)C(C)(C)N2C [MLS000529181]
25.1	O=c1c2ccccc2cnn1-c1nc2ccccc2[nH]1 [MLS001017304]
> 300	O=C(Nc1cccnc1)Nc1ccccn1 [MLS000104821]
> 300	COc1cccc(C(=O)Nc2ccc(C(=O)NCC(C)C)cc2)c1 [SMR000292523]
> 300	CC(C(=O)NCc1ccccc1)n1cc([N+](=O)[O-])cn1 (configuration not stated) [SMR000559338]
> 300	O=C(NNC(=O)C1[C@H]2CCCC[C@@H]12)c1ccc(=O)oc1 (some centres not stated) [MLS000768334]
> 300	COc1ccc(NC(=O)c2sc(SC)nc2N)cc1 [SMR000011170]
> 300	Fc1ccccc1CSc1nnc(-c2ccccc2)o1 [MLS000063511]
> 300	CN1CCc2[nH]c3ccc(C(=O)NN)cc3c2C1 [SMR000131639]
> 300	O=C(COC(=O)c1cc(=O)c2ccccc2o1)NC1CCCC1 [MLS001017387]
> 300	CC(C)Cc1ccccc1O [SMR000639202]
15.8	Cc1c(Cc2ccccc2)c(=O)oc2cc(O)cc(O)c12 [SMR000300454]
20.3	Nc1nc(Nc2ccccc2)nc(N2CCOCC2)c1[N+](=O)[O-] [SMR000219795]
> 300	COC(=O)c1nnn(-c2nonc2N)c1CN1CCCC1 [MLS001202105]
> 300	COc1ccc(N2CCN(CCNC(=O)c3nnc(Cc4c(F)cccc4Cl)o3)CC2)cc1 [MLS000083714]
> 300	Cc1ccc(C(=O)/C=C/c2ccc3ncccc3c2)cc1 [SMR000516943]
> 100	CC(OC(=O)c1nsc(Cl)c1Cl)C(=O)NCc1ccco1 (configuration not stated) [MLS000074009]
> 300	Oc1ccc(CNCC2COc3ccccc3O2)cc1 (configuration not stated) [SMR000145120]
13.5	CC(C)CNc1nc(N)c([N+](=O)[O-])c(NC2CCCCC2)n1 [MLS001213331]
25.4	Cc1cc(-c2n[nH]c3c2C(c2cccc(O)c2)C(C#N)C(=N)O3)c(C)s1 (configuration not stated) [SMR000136653]
> 300	O=C(NCc1cccs1)c1cc(C2CC2)on1 [SMR000127641]

Source: BindingDB's records for doi:10.7270/Q2TX3CTT (Broad Institute, 2010)
